According to patent US10047051B2, “Substituted pyridines and method of use” (AbbVie S.á{acute over (.)}r.l., priority 2015, dated 2018):
pEC50: −log10 of the molar value.

Key:
Format in all cases: cell-based
[1] = target: T1, CFTR-S549N (Homo sapiens, UniProt P13569, S549N); assay: YFP-halide influx assay for the CFTR-S549N; set-up: % Activation: concentration or dose not given beside the values
T1 construct: expressed in transfected cells
How it was run: (§1)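 HEK293 cells reverse-transfected with a CFTR mutant and YFP H148Q/I152L/F47L halide sensor, expressed 24 h at 37° C. Fluorescence quenching followed for 7 s after I⁻ injection; activity expressed as 1−F/F0, with EC50 fitted from 1−F/F0 versus compound concentration.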

[2] = target: T2, CFTR-R117H (Homo sapiens, UniProt P13569, R117H); assay: YFP-halide influx assay for the CFTR-R117H
T2 construct: expressed in transfected cells
T2 sequence (P13569 whole entry R117H): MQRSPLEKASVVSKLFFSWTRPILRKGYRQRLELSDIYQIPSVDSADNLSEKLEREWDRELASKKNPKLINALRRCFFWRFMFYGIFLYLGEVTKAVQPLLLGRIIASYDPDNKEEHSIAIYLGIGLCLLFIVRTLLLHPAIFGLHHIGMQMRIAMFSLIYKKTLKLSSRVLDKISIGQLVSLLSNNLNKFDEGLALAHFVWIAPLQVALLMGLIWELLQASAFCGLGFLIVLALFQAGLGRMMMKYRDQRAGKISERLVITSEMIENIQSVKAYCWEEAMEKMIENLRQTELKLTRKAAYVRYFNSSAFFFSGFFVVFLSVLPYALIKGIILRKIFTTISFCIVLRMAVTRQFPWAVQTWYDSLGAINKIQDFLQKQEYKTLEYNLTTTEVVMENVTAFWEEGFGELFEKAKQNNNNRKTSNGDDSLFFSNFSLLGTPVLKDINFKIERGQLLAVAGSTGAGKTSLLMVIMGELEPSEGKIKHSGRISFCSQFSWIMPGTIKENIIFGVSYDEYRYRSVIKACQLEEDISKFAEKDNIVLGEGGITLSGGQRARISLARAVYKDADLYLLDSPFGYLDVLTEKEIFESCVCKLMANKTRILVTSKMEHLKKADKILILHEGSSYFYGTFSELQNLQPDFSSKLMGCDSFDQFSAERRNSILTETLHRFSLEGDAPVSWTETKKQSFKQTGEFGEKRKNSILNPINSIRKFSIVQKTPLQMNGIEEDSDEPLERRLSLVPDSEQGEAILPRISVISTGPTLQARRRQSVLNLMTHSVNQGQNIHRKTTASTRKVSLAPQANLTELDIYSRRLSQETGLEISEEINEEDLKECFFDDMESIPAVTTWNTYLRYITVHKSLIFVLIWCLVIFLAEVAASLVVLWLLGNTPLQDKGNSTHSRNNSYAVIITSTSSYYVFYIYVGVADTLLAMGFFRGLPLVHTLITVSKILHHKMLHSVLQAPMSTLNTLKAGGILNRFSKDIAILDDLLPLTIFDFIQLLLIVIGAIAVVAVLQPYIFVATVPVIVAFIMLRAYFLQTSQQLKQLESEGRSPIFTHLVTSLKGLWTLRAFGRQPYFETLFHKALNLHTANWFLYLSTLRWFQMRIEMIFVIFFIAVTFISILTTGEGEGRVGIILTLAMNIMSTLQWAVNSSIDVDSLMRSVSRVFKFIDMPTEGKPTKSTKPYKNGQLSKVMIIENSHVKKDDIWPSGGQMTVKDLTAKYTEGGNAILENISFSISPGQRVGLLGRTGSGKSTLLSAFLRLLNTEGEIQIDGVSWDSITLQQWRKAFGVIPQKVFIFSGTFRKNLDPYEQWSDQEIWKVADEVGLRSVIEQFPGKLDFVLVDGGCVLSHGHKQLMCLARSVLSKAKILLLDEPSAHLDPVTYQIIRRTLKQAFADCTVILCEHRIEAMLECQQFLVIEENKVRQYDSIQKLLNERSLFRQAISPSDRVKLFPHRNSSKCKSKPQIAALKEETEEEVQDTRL
How it was run: as §1

[3] = target: T3, CFTR-G1349D (Homo sapiens, UniProt P13569, G1349D); assay: YFP-halide influx assay for the CFTR-G1349D
T3 construct: expressed in transfected cells
T3 sequence (P13569 whole entry G1349D): as the sequence (P13569 whole entry R117H) above, with H117R, G1349D counted along it
How it was run: as §1

[4] = target: T4, CFTR G551D/ΔF508 (Homo sapiens, UniProt P13569, G551D); assay: TECC assay, primary bronchial epithelial cells, CFTR G551D/ΔF508; details: primary bronchial epithelial cells heterozygous G551D/ΔF508, acute mode, increase in Isc after forskolin
T4 construct: host or cells: primary human bronchial epithelial cells from CF patients heterozygous G551D/ΔF508, no corrector pre-treatment
T4 sequence (P13569 whole entry F508del/G551D): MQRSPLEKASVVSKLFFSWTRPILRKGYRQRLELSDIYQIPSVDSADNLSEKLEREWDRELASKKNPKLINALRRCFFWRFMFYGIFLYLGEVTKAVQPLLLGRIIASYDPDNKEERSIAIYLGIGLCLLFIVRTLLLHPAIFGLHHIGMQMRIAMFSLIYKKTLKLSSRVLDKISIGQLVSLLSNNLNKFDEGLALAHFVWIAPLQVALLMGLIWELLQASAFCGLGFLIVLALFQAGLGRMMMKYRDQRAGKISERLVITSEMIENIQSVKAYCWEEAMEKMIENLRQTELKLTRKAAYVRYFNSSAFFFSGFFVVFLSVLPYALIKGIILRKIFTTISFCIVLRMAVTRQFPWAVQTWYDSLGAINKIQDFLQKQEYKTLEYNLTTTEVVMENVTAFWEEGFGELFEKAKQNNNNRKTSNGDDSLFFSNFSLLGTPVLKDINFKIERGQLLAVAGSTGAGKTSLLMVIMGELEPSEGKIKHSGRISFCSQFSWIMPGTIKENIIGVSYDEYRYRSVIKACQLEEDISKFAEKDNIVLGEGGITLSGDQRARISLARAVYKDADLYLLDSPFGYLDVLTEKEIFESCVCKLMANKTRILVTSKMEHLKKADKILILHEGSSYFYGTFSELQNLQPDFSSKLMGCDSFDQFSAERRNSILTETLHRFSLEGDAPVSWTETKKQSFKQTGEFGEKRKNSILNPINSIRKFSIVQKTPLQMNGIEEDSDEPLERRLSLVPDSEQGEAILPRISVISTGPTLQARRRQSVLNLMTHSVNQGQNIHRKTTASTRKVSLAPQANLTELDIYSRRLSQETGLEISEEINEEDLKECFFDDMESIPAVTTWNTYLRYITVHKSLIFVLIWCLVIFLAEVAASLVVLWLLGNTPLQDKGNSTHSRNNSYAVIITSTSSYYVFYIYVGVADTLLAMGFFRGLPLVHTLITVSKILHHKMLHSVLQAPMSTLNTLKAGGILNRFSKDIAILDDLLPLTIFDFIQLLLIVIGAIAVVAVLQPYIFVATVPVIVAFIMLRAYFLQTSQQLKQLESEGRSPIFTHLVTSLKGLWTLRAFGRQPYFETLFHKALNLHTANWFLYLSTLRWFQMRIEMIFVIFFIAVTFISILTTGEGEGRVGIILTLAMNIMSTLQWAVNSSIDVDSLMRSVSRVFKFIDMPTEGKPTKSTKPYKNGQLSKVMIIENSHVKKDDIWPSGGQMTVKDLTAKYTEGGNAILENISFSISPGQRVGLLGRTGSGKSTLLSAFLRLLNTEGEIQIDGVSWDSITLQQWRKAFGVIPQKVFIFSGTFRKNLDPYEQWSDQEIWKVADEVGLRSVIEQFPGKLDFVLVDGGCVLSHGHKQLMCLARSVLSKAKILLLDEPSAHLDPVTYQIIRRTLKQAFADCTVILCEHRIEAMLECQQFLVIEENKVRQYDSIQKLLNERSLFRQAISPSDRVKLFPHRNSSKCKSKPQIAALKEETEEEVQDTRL
Experimental: (§2) The TECC (Tranepithelial Clamp Circuit, EP-design) assay measures the functionality of the cystic fibrosis Transmembrane Conductance regulator (CFTR) by measuring the short circuit current (Isc) generated over the basolateral and apical membrane of lung epithelial cells. In TECC the transepithelial potential PD and transepithelial resistance (Rt) are measured in an open circuit and transformed to Isc using Ohm's law. 24 Wells can be measured simultaneously allowing a higher throughput compared to Ussing chambers.
(§3) For this purpose, bronchial epithelial cells isolated from CF patients homozygous for the CFTR ΔF508 mutation (hAEC-CF, Epithelix) are plated on type IV collagen-coated Transwell® supports (Costar). Human airway epithelia are generated by provision of an air-liquid interface for 21 days to form well-differentiated polarized cultures that resemble in vivo pseudo-stratified ciliated epithelium (Fulcher, M. L., Gabriel, S., Burns, K. A., Yankaskas, J. R., Randell, S. H., 2005. Well-differentiated human airway epithelial cell cultures. Methods Mol. Med. 107, 183-206). In the case of the homozygous ΔF508 CFTR samples, the differentiated cells are treated with 3 μM VX809 (2626 South Loop West, Suite 225, Houston, Tex. 77054 USA, Cat n# S1565) to allow sufficient expression of properly folded CFTR protein on the membrane (48 hours basolateral treatment and 24 hours apical treatment), prior to electrophysiological recordings. For heterozygous G551D/ΔF508, differentiated cells are used as such for the recordings.
(§4) Information on the compounds can be retrieved on the homozygous ΔF508 CFTR samples looking at increased CFTR activity when compounds are added in an acute mode or in a chronic mode. On G551D/ΔF508 CFTR heterozygous samples compounds are added in an acute mode to the differentiated cells.
(§5) For the acute mode, for electrophysiological recording, the human airway epithelia are mounted in the TECC heating plate for electrophysiological measurement and kept at 37° C. The epithelia are bathed in a NaCl-Ringer solution (120 mM NaCl, 25 mM NaHCO3, 1.2 mM CaCl2, 1.2 mM MgCl2, 0.8 mM KH2PO4, 0.8 mM K2HPO4, pH 7.4, 5 mM glucose) on both the basolateral and apical sides. Apical amiloride is used to inhibit the endogenous ENaC currents while forkolin is applied on both apical and basolateral side to stimulate CFTR. After forskolin triggering, compounds are added on both sides to test their potential for increasing CFTR gating. Measurements are done during a 20 minute timeframe with recordings every 2 minutes. The increase in Isc is used as a measure for the increased CFTR activity, EC50 values can be generated by measuring impact of different concentrations of compound on Isc on primary cells, for this purpose each transwell is treated with a different compound concentration. Inh-172, an inhibitor specific for CFTR, is used to test the specificity of the tested compounds.
When subjected to this protocol, the following values were obtained. The difference between ΔIsc measured as DMSO (baseline), and the ΔIsc measured with the compound tested.

[5] = target: T5, CFTR ΔF508 mutant (Homo sapiens, UniProt P13569, DEL508-508); assay: YFP-halide influx assay for the CFTR-ΔF508 mutation (CFBE41o- cells); details: forskolin 10.67 μM; for pEC50: from (1−F/F0) vs concentration plot
T5 construct: expressed in transfected cells; host or cells: CFBE41o- cells, adenoviral transduction
T5 sequence (P13569 with tags, fused parts or gaps DEL508-508): as the sequence (P13569 whole entry F508del/G551D) above, with D550G counted along it
How it was run: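 EC50 derived from plotting 1−F/F0 (fluorescence 36 s after iodide injection over pre-injection value) against compound concentration. Cells: CFBE41o- transduced with ΔF508-CFTR and YFP quench reporter, corrected 24 h at 27° C or by a CFTR modulator at 37° C.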

[6] = target: T6, CFTR-G178R (Homo sapiens, UniProt P13569, G178R); assay: YFP-halide influx assay for the CFTR-G178R
T6 construct: expressed in transfected cells
T6 sequence (P13569 whole entry G178R): as the sequence (P13569 whole entry R117H) above, with H117R, G178R counted along it
How it was run: as §1

[7] = target: T7, CFTR G551D mutant (Homo sapiens, UniProt P13569, G551D); assay: YFP-halide influx assay for the CFTR-G551D mutation (HEK293 cells); details: forskolin 10.67 μM
T7 construct: expressed in transfected cells; host or cells: HEK293 cells, reverse transfection with plasmids
T7 sequence (P13569 whole entry G551D): as the sequence (P13569 whole entry R117H) above, with H117R, G551D counted along it
How it was run: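 Channel opening read as I⁻-driven quenching of a YFP H148Q/I152L/F47L reporter over 7 s post-injection, expressed as 1−F/F0 and fitted against concentration for EC50. Cells were HEK293 co-transfected at seeding with G551D CFTR plus reporter, then grown 24 h at 37 °C, 5% CO2.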

[8] = target: T8, CFTR ΔF508 (Homo sapiens, UniProt P13569, DEL508-508); assay: TECC assay, primary bronchial epithelial cells, CFTR ΔF508; details: primary bronchial epithelial cells of CF patients homozygous for CFTR ΔF508, treated with 3 μM VX809, increase in Isc after forskolin
T8 construct: host or cells: primary human bronchial epithelial cells from CF patients homozygous for ΔF508, pre-treated with VX809
T8 sequence (P13569 with tags, fused parts or gaps DEL508-508): as the sequence (P13569 whole entry F508del/G551D) above, with D550G counted along it
Experimental: as §2, §3, §4, §5
For the chronic mode, the differentiated cells are treated with 3 μM VX809 (2626 South Loop West, Suite 225, Houston, Tex. 77054 USA, Cat n# S1565) and potentiator compounds at different concentrations (48 hours basolateral treatment and 24 hours apical treatment), prior to electrophysiological recordings. For electrophysiological recording, the human airway epithelia are mounted in the TECC heating plate for electrophysiological measurement and kept at 37° C. The epithelia are bathed in a NaCl-Ringer solution (120 mM NaCl, 25 mM NaHCO3, 1.2 mM CaCl2, 1.2 mM MgCl2, 0.8 mM KH2PO4, 0.8 mM K2HPO4, pH 7.4, 5 mM glucose) on both the basolateral and apical sides. Apical amiloride is used to inhibit the endogenous ENaC currents while forkolin is applied on both apical and basolateral side to stimulate CFTR. Measurements are done during a 20 minute timeframe with recordings every 2 minutes. […]

T1 sequence (P13569 whole entry S549N): as the sequence (P13569 whole entry R117H) above, with H117R, S549N counted along it

Compound	% Activation [1] [%]	pEC50 [1]	% Activation [2] [%]	pEC50 [2]	% Activation [3] [%]	pEC50 [3]	pEC50 [4]	% Activation [5] [%]	pEC50 [5]	% Activation [6] [%]	pEC50 [6]	% Activation [7] [%]	pEC50 [7]	pEC50 [8]
CC1(C)CN(C(=O)c2ncc(S(=O)(=O)c3ccc(OC(F)(F)F)cc3)cc2N)C1 [Compound 59, (3-amino-5-{[4-(trifluoromethoxy)phenyl]sulfonyl}pyridin-2-yl)(3,3-dimethylazetidin-1-yl)methanone]	–	–	–	–	–	–	–	111.0	7.46	–	–	84.6	5.79	7.30
CC(C)OCC(O)CNC(=O)c1ncc(S(=O)(=O)c2ccc(C(F)(F)F)cc2)cc1N (stereo not drawn) [Compound 92, 3-amino-N-[2-hydroxy-3-(propan-2-yloxy)propyl]-5-{[4-(trifluoromethyl)phenyl]sulfonyl}pyridine-2-carboxamide]	98.96	6.88	94.77	7.01	91.24	7.51	6.84	118.5	8.14	104.9	6.84	79.0	6.68	–
CCOCCOCC(O)CNC(=O)c1ncc(S(=O)(=O)c2ccc(OC(F)(F)F)cc2)cc1N (stereo not drawn) [Compound 38, 3-amino-N-[3-(2-ethoxyethoxy)-2-hydroxypropyl]-5-{[4-(trifluoromethoxy)phenyl]sulfonyl}pyridine-2-carboxamide]	–	–	–	–	–	–	–	103.0	7.21	–	–	86.0	5.96	7.04
Nc1cc(S(=O)(=O)c2ccc(OC(F)(F)F)cc2)cnc1C(=O)NCC1CCCO1 (stereo not drawn) [Compound 7, 3-amino-N-(tetrahydrofuran-2-ylmethyl)-5-{[4-(trifluoromethoxy)phenyl]sulfonyl}pyridine-2-carboxamide]	–	–	82.7	6.32	63.0	6.26	5.11	103.5	7.16	–	–	73.5	6.14	–
COCC(O)CNC(=O)c1ncc(S(=O)(=O)c2ccc(OC(F)(F)F)cc2F)cc1N (stereo not drawn) [Compound 71, 3-amino-5-{[2-fluoro-4-(trifluoromethoxy)phenyl]sulfonyl}-N-(2-hydroxy-3-methoxypropyl)pyridine-2-carboxamide]	–	–	–	–	–	–	–	108.0	7.72	–	–	70.2	5.90	6.95
COC[C@H](O)CNC(=O)c1ncc(S(=O)(=O)c2ccc(C(F)(F)F)cc2F)cc1N [Compound 99, 3-amino-5-{[2-fluoro-4-(trifluoromethyl)phenyl]sulfonyl}-N-[(2R)-2-hydroxy-3-methoxypropyl]pyridine-2-carboxamide]	–	–	–	–	–	–	6.45	109.5	8.12	–	–	91.7	6.10	–
Nc1cc(S(=O)(=O)c2ccc(OC(F)(F)F)cc2)cnc1C(=O)NCCC(O)C(F)(F)F (stereo not drawn) [Compound 52, 3-amino-N-(4,4,4-trifluoro-3-hydroxybutyl)-5-{[4-(trifluoromethoxy)phenyl]sulfonyl}pyridine-2-carboxamide]	–	–	–	–	–	–	6.34	96.6	8.10	–	–	48.8	6.34	7.42

Now those with a higher pEC50 [5], led by results:

% Activation [1] [%]	pEC50 [1]	% Activation [2] [%]	pEC50 [2]	% Activation [3] [%]	pEC50 [3]	pEC50 [4]	% Activation [5] [%]	pEC50 [5]	% Activation [6] [%]	pEC50 [6]	% Activation [7] [%]	pEC50 [7]	pEC50 [8]	Compound
–	–	–	–	–	–	5.84	102.6	8.22	–	–	51.2	5.97	–	Nc1cc(S(=O)(=O)c2ccccc2)cnc1C(=O)NC[C@@H](O)C(F)(F)F [Compound 253, 3-amino-5-(phenylsulfonyl)-N-[(2R)-3,3,3-trifluoro-2-hydroxypropyl]pyridine-2-carboxamide]
65.61	7.06	88.62	6.86	71.97	7.12	6.31	104.0	8.24	80.8	6.65	54.2	6.52	–	Nc1cc(S(=O)(=O)N2CCC(C(F)(F)F)CC2)cnc1C(=O)NCC(O)C(F)(F)F (stereo not drawn) [Compound 95, 3-amino-N-(3,3,3-trifluoro-2-hydroxypropyl)-5-{[4-(trifluoromethyl)piperidin-1-yl]sulfonyl}pyridine-2-carboxamide]
–	–	–	–	–	–	7.21	102.0	8.60	–	–	99.7	6.67	–	CC(C)OC[C@H](O)CNC(=O)c1ncc(S(=O)(=O)c2ccc(C(F)(F)F)cc2)cc1N [Compound 252, 3-amino-N-[(2R)-2-hydroxy-3-(propan-2-yloxy)propyl]-5-{[4-(trifluoromethyl)phenyl]sulfonyl}pyridine-2-carboxamide]
104.8	8.48	103	8.42	90.89	8.56	8.02	110.5	9.00	77.69	8.48	51.7	7.54	–	Nc1cc(S(=O)(=O)c2ccccc2OC(F)(F)F)cnc1C(=O)N1CC(O)(C(F)(F)F)C1 [Compound 85, (3-amino-5-{[2-(trifluoromethoxy)phenyl]sulfonyl}pyridin-2-yl)[3-hydroxy-3-(trifluoromethyl)azetidin-1-yl]methanone]
